Several values for one entry are separate records, joined by “and”; a condition that tells them apart may be missing. Equal entries are not always repeated. After the bases stand the sugars from the 5' end (letter, count) and the backbone: PS all phosphorothioate, else s phosphorothioate and o phosphodiester by linkage. Methylation of C is not given here. e = 2'-O-(2-methoxyethyl) (MOE); k = constrained ethyl (cEt); d = 2'-deoxy (DNA); m = 2'-O-methyl
Biological target: IRF5
Conditions: ASO

Sequence “GTGAGTCTCAAACCAG (sugars kkkddddddddkdkdk, PS)” has a target mRNA inhibition (KARPAS-229, 4 µM) of 0%.

For “GGAAGTGAGTCTCAAA (sugars k3 d9 k3 e1, PS)”, the target mRNA inhibition (KARPAS-229, 0.44444 µM) was 21%, the target mRNA inhibition (KARPAS-229, 1.33333 µM) was 13% and the target mRNA inhibition (KARPAS-229, 4 µM) was 49% and 71%. For the same sequence, the target mRNA inhibition (KARPAS-229, 12 µM) was 76%.

“GATGGTGTTATCTCCG (sugars k3 d9 k3 e1, PS)” showed a target mRNA inhibition (KARPAS-229, 4 µM) of 0%.

Work on “TCTTGACCTCCCGCTG (sugars kdddddddddkekeke, PS)” yielded a target mRNA inhibition (KARPAS-229, 4 µM) of 40%.

“TTATTTCTGCTCCAGG (sugars kkkdddddddddkeke, PS)” was tested, and the target mRNA inhibition (KARPAS-229, 4 µM) was 43%.

With “TTGTCTAGTGTCATGG (sugars k3 d9 k3 e1, PS)” the target mRNA inhibition (KARPAS-229, 4 µM) was 20%.

Work on CACATCTCCACATCAG (sugars k3 d10 k3, PS) yielded a target mRNA inhibition (KARPAS-229, 4 µM) of 45%.

Sequence “CACATCTCCACATCAG (sugars kekdddddddddeekk, PS)” has a target mRNA inhibition (KARPAS-229, 4 µM) of 26%.

With “CCAATGCAACATCCAT (sugars kkdddddddddkdkdk, PS)” the target mRNA inhibition (KARPAS-229, 4 µM) was 0%.

“GCTGTCACATCTCCAC (sugars kkkddddddddkdkdk, PS)” gave a target mRNA inhibition (KARPAS-229, 4 µM) of 35%.

With “GGTCTTTGAGGTCTGG (sugars k2 d9 e3 k2, PS)” the target mRNA inhibition (KARPAS-229, 0.44444 µM) was 22%, the target mRNA inhibition (KARPAS-229, 1.33333 µM) was 58% and the target mRNA inhibition (KARPAS-229, 4 µM) was 74% and 69%. It also gave a target mRNA inhibition (KARPAS-229, 12 µM) of 79%.

In the case of “TGAGTCTCAAACCAGG (sugars k2 d9 e3 k2, PS)”, the target mRNA inhibition (KARPAS-229, 4 µM) is reported as 0%.

For “AGGAGTGAGACGAGCA (sugars k3 d9 k3 e1, PS)”, the target mRNA inhibition (KARPAS-229, 4 µM) was 37%.

“CATTCCATATACACAC (sugars kkdddddddddkekek, PS)” gave a target mRNA inhibition (KARPAS-229, 4 µM) of 54%.

“GTGTATTTCCCTGTCT (sugars kkddddddddddkeke, PS)” was tested, and the target mRNA inhibition (KARPAS-229, 4 µM) was 0%.

For “GCTTGGTCTTGACCTC (sugars kkdddddddddkekek, PS)”, the target mRNA inhibition (KARPAS-229, 4 µM) was 33%.

In the case of “GGTGTATTTCCCTGTC (sugars kkdddddddddkekek, PS)”, the target mRNA inhibition (KARPAS-229, 4 µM) is reported as 26%.

Work on “GATGGTGTTATCTCCG (sugars kkdddddddddkekek, PS)” yielded a target mRNA inhibition (KARPAS-229, 4 µM) of 0%.

Sequence “TTATCTCCGTCCTGGC (sugars kkddddddddkekekk, PS)” has a target mRNA inhibition (KARPAS-229, 4 µM) of 0%.

“GAAGTGAGTCTCAAAC (sugars kkddddddddkekekk, PS)” showed a target mRNA inhibition (KARPAS-229, 4 µM) of 27%.

“ACCATTCTATGCCTTT (sugars kddddddddddkekek, PS)” gave a target mRNA inhibition (KARPAS-229, 4 µM) of 0%.

Work on “GGTCTGGCCCTTTTGG (sugars kkkddddddddkdkdk, PS)” yielded a target mRNA inhibition (KARPAS-229, 4 µM) of 0%.

“CCACTGTGTACCCCAT (sugars k3 d9 k3 e1, PS)” gave a target mRNA inhibition (KARPAS-229, 4 µM) of 57%.

With “CCAATGCAACATCCAT (sugars kkdddddddddkekek, PS)” the target mRNA inhibition (KARPAS-229, 4 µM) was 0%.

In the case of “TTCTTGGACTCTCAAG (sugars kdddddddddkekeke, PS)”, the target mRNA inhibition (KARPAS-229, 4 µM) is reported as 0%.

“GTCTTGACCTCCCGCT (sugars kkkddddddddkekek, PS)” showed a target mRNA inhibition (KARPAS-229, 4 µM) of 23%.

“TGAGTCATGGGCTGAG (sugars kkdddddddddkdkdk, PS)” showed a target mRNA inhibition (KARPAS-229, 4 µM) of 12%.

Sequence “AGCTTGGTCTTGACCT (sugars kdddddddddkekeke, PS)” has a target mRNA inhibition (KARPAS-229, 4 µM) of 14%.

“GAGTCATGGGCTGAGG (sugars kdddddddddkekeke, PS)” gave a target mRNA inhibition (KARPAS-229, 4 µM) of 0%.

In the case of “GTCTAGTGTCATGGAA (sugars kkddddddddkekekk, PS)”, the target mRNA inhibition (KARPAS-229, 4 µM) is reported as 9%.

With “ATCACCACTGTGTACC (sugars kkddddddddddkeke, PS)” the target mRNA inhibition (KARPAS-229, 4 µM) was 0%.

“ATGAGTCATGGGCTGA (sugars kekddddddddkeekk, PS)” gave a target mRNA inhibition (KARPAS-229, 4 µM) of 0%.

Sequence “ACCATTCTATGCCTTT (sugars kkddddddddddkeke, PS)” has a target mRNA inhibition (KARPAS-229, 4 µM) of 51%.

In the case of “GTCTGGCCCTTTTGGA (sugars kkddddddddkekekk, PS)”, the target mRNA inhibition (KARPAS-229, 4 µM) is reported as 0%.

In the case of “GTCTTTGAGGTCTGGG (sugars kdddddddddkekeke, PS)”, the target mRNA inhibition (KARPAS-229, 4 µM) is reported as 33%.

For GCACTGACACAGGCGG (sugars k3 d10 k3, PS), the target mRNA inhibition (KARPAS-229, 4 µM) was 14% and 0%.

AGGGTGAGTAGGACGA (sugars k3 d10 k3, PS) gave a target mRNA inhibition (KARPAS-229, 4 µM) of 19%.

In the case of “AGCTTGGTCTTGACCT (sugars kkdddddddddkekek, PS)”, the target mRNA inhibition (KARPAS-229, 4 µM) is reported as 8%.

With “TGAGTCATGGGCTGAG (sugars kkkddddddddkdkdk, PS)” the target mRNA inhibition (KARPAS-229, 4 µM) was 3%.

With “TCTGAUATGATACCTA (sugars k3 d2 m1 d7 k3, PS)” the target mRNA inhibition (A-431, 0.00412 µM) was 0%, the target mRNA inhibition (A-431, 0.01225 µM) was 12% and the target mRNA inhibition (A-431, 0.03704 µM) was 35%. For the same sequence, the target mRNA inhibition (A-431, 0.11111 µM) was 58%, the target mRNA inhibition (A-431, 0.33333 µM) was 79% and the target mRNA inhibition (A-431, 1 µM) was 83%.

With GGACGAGTTATGGGAA (sugars k3 d10 k3, PS) the target mRNA inhibition (KARPAS-229, 4 µM) was 37%.

“CACATCTCCACATCAG (sugars kdddddddddkekeke, PS)” showed a target mRNA inhibition (KARPAS-229, 4 µM) of 2%.

Work on “GTCTGGCCCTTTTGGA (sugars k2 d9 e3 k2, PS)” yielded a target mRNA inhibition (KARPAS-229, 4 µM) of 0%.

“CATTCCATATACACAC (sugars kkkddddddddkekek, PS)” was tested, and the target mRNA inhibition (KARPAS-229, 4 µM) was 32%.

“TATCTCCGTCCTGGCT (sugars kkddddddddkekekk, PS)” was tested, and the target mRNA inhibition (KARPAS-229, 4 µM) was 6%.

Sequence “GGAGTGAGACGAGCAA (sugars kkdddddddddkdkdk, PS)” has a target mRNA inhibition (KARPAS-229, 4 µM) of 16%.

Source: the OligoGym collection
